Source: publication PMC10500001, “Dual hypoxia-responsive supramolecular complex for cancer target therapy” (Nature Communications, 2023)
Values joined by “and” are separate entries in the source; they are usually repeats but may differ in a detail not shown here. Equal values may be shown once.

How the values were obtained:
[1] = Biosafety: blood routine and blood chemistry assays
Description: Toxic effects are a barrier to overcome before efficient deliverability can be achieved with BE.
For in vivo anticancer efficacy study, 1 × 10^6 PANC1 cells were injected subcutaneously into the right flanks of the BALB/c nude mice. To investigate the anticancer effects of SBE-β-CD@NMP-BE, the mice with tumor volumes at around 50 mm^3 were randomized into four groups (6 mice per group) and injected intravenously via tails with 200 μL of PBS, NMP-BE (5 mg/kg), SBE-β-CD (15 mg/kg) and NMP-BE@SBE-β-CD (20 mg/kg) every two days for 8 times and the tumor volumes for 14 days were continuously monitored. Tumor were measured by using a Vernier calipers and the volume (V) was calculated to be V = d^2 × D/2, where d is the shortest and the D is longest diameter of the tumor in mm respectively. […] Tumors were measured as mentioned above. To assess potential toxicities, mice were monitored for weight loss. Tumors were collected for H&E analysis and immunofluorescence staining. Major organs including heart, liver, spleen, lung, and kidney, were collected and stained with H&E for histopathologic analysis. To evaluate biosafety of SAC5A, blood samples were collected for blood chemistry assay and blood routine assay.

PANC1 cells = experiment: CCK8 cytotoxicity of SAC5A and SBE-β-CD, 24 h; assay type: cell-based, human; conditions: for cell viability: 24 h, in % (unit assumed)
Description: PANC1 cells (5 × 10^3 cells/well) were seeded into the 96-well plate and incubated overnight. They were treated with SAC5A or SBE-β-CD of different concentrations and incubated for 24 h under normoxic or hypoxic conditions, respectively. […] After a 6 h incubation under normoxic conditions, the culture medium was exchanged with fresh medium. Subsequently, the cells were incubated at 37 °C for 18 h under either normoxic or hypoxic conditions, respectively. And then, the culture medium was replaced with fresh medium and 10 μL cell counting kit-8 solution (C6005, US Everbright, Jiangsu, China). Following a 4 h incubation, the optical density was assessed at 450 nm employing a microplate reader.
Supplementary Figure 19. The cytotoxicity of SAC5A and SBE-β-CD. (a) Cell viability
Data are presented as mean ± SD (n = 6 biologically independent samples).

[2] = system: PANC1 tumor-bearing BALB/c nude mice; experiment: In vivo anticancer efficacy study of NMP-BE@SAC5A; design: species or system mouse; conditions: for Tumor volume: SAC5A 15, NMP-BE 5, NMP-BE@SAC5A 20 mg/kg iv
Description: After the tumor grows to a suitable size, the tumor was divided into small pieces and then subcutaneously inoculated into the right flank of other mice. After 10 d of inoculation, when the tumor volumes of mice were around 50 mm^3, PANC1-bearing BALB/c nude mice were separated randomly with a total of six mice in each group. […] On day 18 after injection, the mice were euthanized, and their tumors were collected. […] In addition, we also investigated the anticancer effects of NMP-BE@SBE-β-CD.
(§1) Tumors were measured as mentioned above.

[3] = system: PANC1 tumor-bearing BALB/c nude mice; experiment: In vivo anticancer effects of NMP and SAC5A; design: species or system mouse; conditions: for Tumor volume: Supplementary Fig.22a
Description: Supplementary Figure 22. […] (a) Average […]
presented as mean ± SD (n = 6 mice per group). P values are calculated by two-way […]
Data are presented as mean ± SD ( n = 6 biologically independent samples ). P values are calculated by one-way ANOVA with Turkey’s multiple comparisons test: ns: no […]
Note: (b) During the experiment, the tumor images were taken of PBS vs NMP, PBS vs SAC5A groups respectively. As the PBS group consisted of the same tumors, the tumor

[4] = Competitive fluorescence titration of RhB@SAC5A with NMP-BE; conditions: binding of SAC5A to NMP-BE, 1:1 competitive binding, PBS 10 mM pH 7.4, 25 °C
Description: Data are presented as mean ± SD (n = 3 biologically independent samples). Source data are provided as a Source Data file.
The complexation of SAC5A with NMP-BE was measured by competitive fluorescence titrations. A mixed solution containing known amounts of reporter dye (RhB), host (SAC5A) and competitive guest (NMP-BE) was injected into 2.50 mL RhB and SAC5A solution in a quartz cuvette. Care was taken to keep the concentrations of dye and SAC5A constant in the course of titrations. The fluorescence intensity was measured (λex = 554 nm for RhB) before the first addition and after every addition. The association constant was obtained by fitting fluorescence intensity (λem = 575 nm for RhB) according to a 1:1 competitive binding model. The fitting of data from direct titrations and competitive titrations was performed in a nonlinear manner, and the fitting modules were downloaded from the website of Prof. Nau’s group (http://www.jacobs-university.de/ses/wnau) under the column of “Fitting Functions”.

PANC1 tumor tissues = experiment: Histology of dissected tumors (H&E, TUNEL, Ki67); conditions: mouse, in vivo
Description: The hematoxylin-eosin (H&E) staining and terminal deoxynucleotidyl transferase dUTP nick end labeling (TUNEL) tests were next carried out to evaluate the cell pathology changes and apoptosis in the tumors of every groups. […] Meanwhile, we verified the effects of different treatments on cancer cell proliferation by immunofluorescence Ki67 staining.
as §1

O=S(=O)(O)c1ccc(/N=N/c2cc3c(O)c(c2)Cc2cc(/N=N/c4ccc(S(=O)(=O)O)cc4)cc(c2O)Cc2cc(/N=N/c4ccc(S(=O)(=O)O)cc4)cc(c2O)Cc2cc(/N=N/c4ccc(S(=O)(=O)O)cc4)cc(c2O)Cc2cc(/N=N/c4ccc(S(=O)(=O)O)cc4)cc(c2O)C3)cc1 [SAC5A, sulfonated azocalix[5]arene]
ALP ([1]; blood chemistry, individual mice 1-5, Fig.6h): 192.3 U/L and 155.8 U/L and 154.8 U/L and 192.1 U/L and 150.9 U/L | ALT ([1]; blood chemistry, individual mice 1-5, Fig.6i): 40 U/L and 44.1 U/L and 53.2 U/L and 59.2 U/L and 46 U/L | AST ([1]; blood chemistry, individual mice 1-5, Fig.6j): 141.2 U/L and 161.4 U/L and 172.2 U/L and 182.6 U/L and 148.2 U/L | CRE ([1]; blood chemistry, individual mice 1-5, Fig.6k): 141.2 µmol/L and 161.4 µmol/L and 172.2 µmol/L and 182.6 µmol/L and 148.2 µmol/L | BUN ([1]; blood chemistry, individual mice 1-5, Fig.6l): 8.3 mmol/L and 8.7 mmol/L and 6.3 mmol/L | RBC ([1]; blood routine, individual mice 1-5, Fig.6a): 10.0 1012/L and 9.2 1012/L and 9.1 1012/L and 11.1 1012/L and 11.2 1012/L | MCHC ([1]; blood routine, individual mice 1-5, Fig.6b): 305 g/L and 300 g/L and 301 g/L and 299 g/L and 308 g/L | HCT ([1]; blood routine, individual mice 1-5, Fig.6c): 51.8% and 49.2% and 51% and 53.8% and 50.9% | MCV ([1]; blood routine, individual mice 1-5, Fig.6d): 48.4 fL and 48.1 fL and 48.2 fL and 48.5 fL and 49.1 fL | PLT ([1]; blood routine, individual mice 1-5, Fig.6e): 11.4 1011/L and 11.8 1011/L and 10.7 1011/L and 11.5 1011/L and 12.0 1011/L | RDW ([1]; blood routine, individual mice 1-5, Fig.6f): 14.3% and 14.9% and 13.6% and 13.3% | MPV ([1]; blood routine, individual mice 1-5, Fig.6g): 5.3 fL and 5.4 fL and 6 fL and 5.5 fL | RBC, MCHC, HCT, MCV, PLT, RDW, MPV, ALP, ALT, AST, CRE, BUN levels versus PBS group ([1]; one-way ANOVA): no significance | RBC, MCHC, HCT, MCV, PLT, RDW, MPV values ([1]; treated mice): small alteration | cell viability (PANC1 cells; PANC1, Hypoxia, 10 μM): 101.91 and 106.97 and 106.87 and 103.95 and 95.76 and 94.38 | cell viability (PANC1 cells; PANC1, Hypoxia, 20 μM): 98.99 and 105.90 and 107.51 and 100.07 and 96.78 and 98.26 | cell viability (PANC1 cells; PANC1, Hypoxia, 40 μM): 96.62 and 103.74 and 107.19 and 94.57 and 95.43 and 98.62 | cell viability (PANC1 cells; PANC1, Hypoxia, 100 μM): 89.44 and 102.24 and 97.97 and 93.46 and 97.47 and 88.44 | cell viability (PANC1 cells; PANC1, Hypoxia, 200 μM): 96.47 and 99.73 and 95.34 and 92.70 and 90.07 and 95.59 | cell viability (PANC1 cells; PANC1, Hypoxia, 400 μM): 98.35 and 96.22 and 97.85 and 103.12 and 92.08 and 92.95 | cell viability (PANC1 cells; PANC1, Normoxia, 10 μM): 94.32 and 96.61 and 94.68 and 98.32 and 94.21 and 96.48 | cell viability (PANC1 cells; PANC1, Normoxia, 20 μM): 92.78 and 88.19 and 94.36 and 97.85 and 97.21 and 107.50 | cell viability (PANC1 cells; PANC1, Normoxia, 40 μM): 88.98 and 89.46 and 94.68 and 94.21 and 93.73 and 87.87 | cell viability (PANC1 cells; PANC1, Normoxia, 100 μM): 86.69 and 92.80 and 86.44 and 99.65 and 91.72 and 99.02 | cell viability (PANC1 cells; PANC1, Normoxia, 200 μM): 96.38 and 94.98 and 93.23 and 105.44 and 89.58 and 94.49 | cell viability (PANC1 cells; PANC1, Normoxia, 400 μM): 90.21 and 94.16 and 91.97 and 97.63 and 95.37 and 92.10 | cytotoxicities (PANC1 cells; PANC1 cells, 10 μM to 0.40 mM, normoxic and hypoxic): negligible | Mice weight ([2]; Day 0, single mouse): 18.5 g and 17.7 g and 16.0 g and 18.0 g and 17.5 g and 16.6 g | Tumor volume ([2]; Day 0, single mouse): 39.34 mm3 and 42.10 mm3 and 36.90 mm3 and 42.16 mm3 and 42.33 mm3 and 56.35 mm3 | Mice weight ([2]; Day 2, single mouse): 14.6 g and 16.5 g and 17.5 g and 17.9 g and 18.5 g and 17.6 g | Tumor volume ([2]; Day 2, single mouse): 46.70 mm3 and 75.90 mm3 and 48.08 mm3 and 55.90 mm3 and 59.70 mm3 and 76.08 mm3 | Tumor volume ([2]; Day 4, single mouse): 55.83 mm3 and 118.84 mm3 and 75.42 mm3 and 64.80 mm3 and 72.81 mm3 and 104.25 mm3 | Mice weight ([2]; Day 6, single mouse): 16.3 g and 16.8 g and 17.8 g and 19.4 g and 19.1 g | Tumor volume ([2]; Day 6, single mouse): 73.60 mm3 and 175.66 mm3 and 110.64 mm3 and 99.97 mm3 and 116.56 mm3 and 152.05 mm3 | Mice weight ([2]; Day 8, single mouse): 16.1 g and 19.1 g and 16.0 g and 17.6 g and 17.1 g and 18.7 g | Tumor volume ([2]; Day 8, single mouse): 97.53 mm3 and 181.96 mm3 and 126.04 mm3 and 134.13 mm3 and 98.89 mm3 and 192.89 mm3 | Mice weight ([2]; Day 10, single mouse): 15.8 g and 18.5 g and 15.6 g and 17.5 g and 16.4 g and 18.7 g | Tumor volume ([2]; Day 10, single mouse): 142.07 mm3 and 265.92 mm3 and 173.37 mm3 and 226.57 mm3 and 159.78 mm3 and 251.75 mm3 | Mice weight ([2]; Day 12, single mouse): 16.5 g and 19.0 g and 16.2 g and 18.3 g and 16.3 g and 18.5 g | Tumor volume ([2]; Day 12, single mouse): 165.62 mm3 and 298.12 mm3 and 264.30 mm3 and 338.22 mm3 and 196.07 mm3 and 282.53 mm3 | Mice weight ([2]; Day 14, single mouse): 16.0 g and 18.0 g and 16.1 g and 18.7 g and 16.4 g and 16.2 g | Tumor volume ([2]; Day 14, single mouse): 268.77 mm3 and 498.25 mm3 and 328.38 mm3 and 404.85 mm3 and 346.37 mm3 and 404.41 mm3 | Mice weight ([2]; Day 16, single mouse): 16.6 g and 18.4 g and 19.3 g and 16.3 g and 19.7 g | Tumor volume ([2]; Day 16, single mouse): 387.44 mm3 and 789.47 mm3 and 472.22 mm3 and 693.97 mm3 and 504.38 mm3 and 616.16 mm3 | Mice weight ([2]; Day 18, single mouse): 16.3 g and 17.8 g and 17.5 g and 16.2 g and 19.7 g | Tumor volume ([2]; Day 18, single mouse): 532.86 mm3 and 970.26 mm3 and 525.48 mm3 and 748.96 mm3 and 671.75 mm3 and 704.93 mm3 | anticancer effect ([2]; PANC1-bearing BALB/c nude mice, iv every other day, 18 days): no anticancer effect | Tumor weight ([2]; day mice were sacrificed (day 18), single mouse): 287.7 mg and 279.3 mg and 561.1 mg and 306.5 mg and 287.3 mg and 306.9 mg | Tumor volume ([3]; day 0, individual mice (n=6)): 39.34 mm3 and 42.10 mm3 and 36.90 mm3 and 42.16 mm3 | Tumor volume ([3]; day 2, individual mice (n=6)): 46.70 mm3 and 75.90 mm3 and 48.08 mm3 and 55.90 mm3 | Tumor volume ([3]; day 4, individual mice (n=6)): 55.83 mm3 and 118.84 mm3 and 75.42 mm3 and 64.80 mm3 | Tumor volume ([3]; day 6, individual mice (n=6)): 73.60 mm3 and 175.66 mm3 and 110.64 mm3 and 99.97 mm3 | Tumor volume ([3]; day 8, individual mice (n=6)): 97.53 mm3 and 181.96 mm3 and 126.04 mm3 and 134.13 mm3 | Tumor volume ([3]; day 10, individual mice (n=6)): 142.07 mm3 and 265.92 mm3 and 173.37 mm3 and 226.57 mm3 | Tumor volume ([3]; day 12, individual mice (n=6)): 165.62 mm3 and 298.12 mm3 and 264.30 mm3 and 338.22 mm3 | Tumor volume ([3]; day 14, individual mice (n=6)): 268.77 mm3 and 498.25 mm3 and 328.38 mm3 and 404.85 mm3 | Tumor volume ([3]; day 16, individual mice (n=6)): 387.44 mm3 and 789.47 mm3 and 472.22 mm3 and 693.97 mm3 | Tumor volume ([3]; day 18, individual mice (n=6)): 532.86 mm3 and 970.26 mm3 and 525.48 mm3 and 748.96 mm3 | Tumor weight ([3]; individual mice (n=6), Supplementary Fig.22c): 306.9 mg and 287.7 mg and 279.3 mg and 561.1 mg and 306.5 mg and 287.3 mg | Ka [4]: (5.1 ± 0.5) × 10^6 M^−1 | TUNEL apoptosis in tumors (PANC1 tumor tissues): negligible apoptosis
